# How the values were obtained:
# [1] = target: Glucagon (Homo sapiens, UniProt P01275); experiment: Entrapment and precipitation of glucagon in SPS particles; format: physicochemical
# Text: Synthesis of SPS and Precipitation of Glucagon
# These sequences are soluble at very low pH and form microparticles that trap peptides in solution within the particles. They remain intact at pH 3-5 in the vicinity of their isoelectric point. Solubility increases in the physiological pH range.
# [2] = target: Glucose oxidase (Aspergillus niger, UniProt P13006); experiment: Stabilization and precipitation of glucose oxidase by SPS; format: physicochemical
# [3] = pH of the solution brought to neutral
# Sequence of Glucagon (P01275 53-81 limits assumed, species assumed): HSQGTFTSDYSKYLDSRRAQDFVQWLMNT
# Sequence of Glucose oxidase (P13006 17-605, species assumed): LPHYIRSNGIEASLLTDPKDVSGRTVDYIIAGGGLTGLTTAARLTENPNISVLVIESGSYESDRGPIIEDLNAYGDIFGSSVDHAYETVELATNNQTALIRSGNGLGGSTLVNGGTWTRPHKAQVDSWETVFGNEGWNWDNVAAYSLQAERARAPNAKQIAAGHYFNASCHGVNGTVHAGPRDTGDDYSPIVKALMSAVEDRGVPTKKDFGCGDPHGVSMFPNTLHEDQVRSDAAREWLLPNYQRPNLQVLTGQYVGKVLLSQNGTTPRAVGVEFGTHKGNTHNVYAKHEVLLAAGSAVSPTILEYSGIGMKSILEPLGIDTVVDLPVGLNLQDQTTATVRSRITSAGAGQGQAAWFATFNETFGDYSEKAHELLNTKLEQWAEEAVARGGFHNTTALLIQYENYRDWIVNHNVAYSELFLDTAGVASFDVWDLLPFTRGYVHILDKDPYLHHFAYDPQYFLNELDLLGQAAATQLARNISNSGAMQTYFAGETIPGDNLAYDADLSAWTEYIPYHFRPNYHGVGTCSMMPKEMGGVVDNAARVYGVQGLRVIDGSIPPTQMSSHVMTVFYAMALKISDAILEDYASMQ
substance,measurement,setting,value
H-Aspartic Acid-Tryptophan-Aspartic Acid —OH,glucagon remained in the particles (entrapment efficiency),[1]; glucagon entrapped in SPS particles,more than 60%
same,stabilization of glucagon,[1]; in aqueous solution,stabilized it in aqueous solution
same,release of glucagon,[1]; [3],released the glucagon intact
same,stabilization and precipitation of glucose oxidase,"[2]; in aqueous solution, stored along with insulin glargine at a pH of 4",stabilized and precipitated
same,release of glucose oxidase,[2]; [3],released intact

# Source: US20120087985A1, “SMALL PEPTIDE SEQUENCES FOR STABILIZING BIOMOLECULES” (Biodel Inc., priority 2010, published 2012)
